Measurements from patent US20200017495A1, “NOVEL HETEROCYCLIC COMPOUNDS AND THEIR USE IN PREVENTING OR TREATING BACTERIAL INFECTIONS” (priority 2017, published 2020).
Like-named read-outs stand apart in the source and are kept apart here.

How the values were obtained:
Test in all cases: MIC of compounds alone and combined with antibacterials, broth microdilution (CLSI)
Type in all cases: cell-based
[1] = system: Enterobacter cloacae (ECL) isolates; conditions: Enterobacter cloacae, read-out: MIC
How it was run: (§1)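 Broth microdilution in cation-adjusted Mueller-Hinton broth, inoculum 5.10^5 CFU/mL, 16-20 h at 35° C in ambient air, on genotyped isolates. Compound MIC, alone or with an antibacterial, taken visually as lowest concentration preventing growth; antibacterial MIC determined at each compound concentration.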

[2] = system: Klebsiella oxytoca (KOX) isolates; conditions: Klebsiella oxytoca, read-out: MIC
How it was run: as §1

[3] = system: Serratia marcescens (SMA) isolates; conditions: Serratia marcescens, read-out: MIC
How it was run: as §1

[4] = system: Escherichia coli (ECO) isolates; conditions: Escherichia coli, read-out: MIC
How it was run: as §1

[5] = system: Providencia rettgeri (PRE) isolates; conditions: Providencia rettgeri, read-out: MIC
How it was run: as §1

O=C1N2CC(c3ncco3)=CC(C2)N1OC(F)(F)C(=O)[O-].[Li+] (centres unmarked) [AF2]
MIC ([1]; ECL 190408, alone): 4 µg/mL
MIC ([1]; ECL HAN, alone): 32 µg/mL
MIC ([1]; ECL NEM146383, alone): 32 µg/mL
MIC ([1]; ECL P99, alone): 8 µg/mL
MIC ([1]; ECL UFR12, alone): 16 µg/mL
MIC ([1]; ECL UFR13, alone): 16 µg/mL
MIC ([1]; ECL UFR14, alone): 16 µg/mL
MIC ([1]; ECL UFR38, alone): 8 µg/mL
MIC ([1]; ECL UFR51, alone): 8 µg/mL
MIC ([1]; ECL UFR60, alone): 16 µg/mL
MIC ([1]; ECL UFR70, alone): 8 µg/mL
MIC ([1]; ECL UFR84, alone): 32 µg/mL
MIC ([1]; ECL UFR85, alone): 8 µg/mL
MIC ([1]; ECL UFR200, alone): 32 µg/mL
MIC ([1]; strain ECL UFR192, compound alone): 16 µg/mL
MIC ([1]; strain ECL UFR193, compound alone): 16 µg/mL
MIC ([1]; strain ECL UFR194, compound alone): 8 µg/mL
MIC ([1]; strain ECL UFR195, compound alone): 16 µg/mL
MIC ([1]; strain ECL UFR196, compound alone): 16 µg/mL
MIC ([1]; strain ECL UFR197, compound alone): 8 µg/mL
MIC ([1]; strain ECL UFR198, compound alone): 32 µg/mL
MIC ([1]; strain ECL UFR203, compound alone): 32 µg/mL
MIC ([1]; strain ECL UFR214, compound alone): 32 µg/mL
MIC ([1]; strain ECL UFR252PT, compound alone): > 32 µg/mL
MIC ([2]; KOX UFR21, alone): 16 µg/mL
MIC ([2]; KOX UFR173, alone): 16 µg/mL
MIC ([2]; KOX UFR223, alone): 8 µg/mL
MIC ([2]; KOX UFR224, alone): 8 µg/mL
MIC ([3]; SMA UFR30, alone): 16 µg/mL
MIC ([3]; SMA UFR134, alone): 16 µg/mL
MIC ([3]; SMA UFR135, alone): > 32 µg/mL
MIC ([3]; SMA UFR136, alone): > 32 µg/mL
MIC ([3]; SMA UFR137, alone): 16 µg/mL
MIC ([3]; SMA UFR138, alone): 16 µg/mL
MIC ([3]; SMA UFR139, alone): > 32 µg/mL
MIC ([3]; SMA UFR141, alone): > 32 µg/mL
MIC ([3]; SMA UFR142, alone): 32 µg/mL
MIC ([3]; SMA UFR143, alone): 32 µg/mL
MIC ([3]; SMA UFR239, alone): 32 µg/mL
MIC ([3]; strain SMA UFR140, compound alone): > 32 µg/mL
MIC ([3]; strain SMA UFR238, compound alone): 16 µg/mL
MIC ([4]; ECO 4133, alone): 8 µg/mL
MIC ([4]; ECO 5302, alone): 4 µg/mL
MIC ([4]; ECO 131119, alone): 4 µg/mL
MIC ([4]; ECO 180070, alone): 8 µg/mL
MIC ([4]; ECO 190314, alone): 8 µg/mL
MIC ([4]; ECO 190317, alone): 4 µg/mL
MIC ([4]; ECO 190457, alone): 4 µg/mL
MIC ([4]; ECO 190549, alone): 4 µg/mL
MIC ([4]; ECO 200159, alone): 4 µg/mL
MIC ([4]; ECO 200259, alone): 4 µg/mL
MIC ([4]; ECO 200344, alone): 8 µg/mL
MIC ([4]; ECO 260096, alone): 16 µg/mL
MIC ([4]; ECO 260304, alone): 4 µg/mL
MIC ([4]; ECO 260508, alone): 8 µg/mL
MIC ([4]; ECO (strain number on grid row 356, not shown), alone): 8 µg/mL
MIC ([4]; ECO UFR17, alone): 16 µg/mL
MIC ([4]; ECO UFR18, alone): 8 µg/mL
MIC ([4]; ECO UFR19, alone): 8 µg/mL
MIC ([4]; ECO UFR32, alone): 8 µg/mL
MIC ([4]; ECO UFR39, alone): 8 µg/mL
MIC ([4]; ECO UFR41, alone): 8 µg/mL
MIC ([4]; ECO UFR45, alone): 4 µg/mL
MIC ([4]; ECO UFR52, alone): 32 µg/mL
MIC ([4]; ECO UFR61O, alone): 8 µg/mL
MIC ([4]; ECO UFR62, alone): 8 µg/mL
MIC ([4]; ECO UFR74, alone): 8 µg/mL
MIC ([4]; ECO UFR86, alone): 16 µg/mL
MIC ([4]; ECO UFR174, alone): 2 µg/mL
MIC ([4]; ECO UFR176, alone): 8 µg/mL
MIC ([4]; ECO UFR184, alone): 4 µg/mL
MIC ([4]; ECO UFR208, alone): 16 µg/mL
MIC ([4]; ECO UFR209, alone): 8 µg/mL
MIC ([4]; ECO UFR210, alone): 4 µg/mL
MIC ([4]; ECO UFR211, alone): 4 µg/mL
MIC ([4]; ECO UFR212, alone): 4 µg/mL
MIC ([4]; ECO URF20, alone): 4 µg/mL
MIC ([4]; strain ECO UFR177, compound alone): 4 µg/mL
MIC ([4]; strain ECO UFR178, compound alone): 8 µg/mL
MIC ([4]; strain ECO UFR179, compound alone): 4 µg/mL
MIC ([4]; strain ECO UFR180, compound alone): 4 µg/mL
MIC ([4]; strain ECO UFR181, compound alone): 16 µg/mL
MIC ([4]; strain ECO UFR182, compound alone): 8 µg/mL
MIC ([4]; strain ECO UFR183, compound alone): 32 µg/mL
MIC ([4]; strain ECO UFR186, compound alone): 8 µg/mL
MIC ([4]; strain ECO UFR187, compound alone): 16 µg/mL
MIC ([4]; strain ECO UFR189, compound alone): 4 µg/mL
MIC ([4]; strain ECO UFR190, compound alone): 8 µg/mL
MIC ([4]; strain ECO UFR191, compound alone): 8 µg/mL
MIC ([4]; strain ECO UFR204, compound alone): 8 µg/mL
MIC ([4]; strain ECO UFR205, compound alone): 8 µg/mL
MIC ([4]; strain ECO UFR206, compound alone): 16 µg/mL
MIC ([4]; strain ECO UFR252GO, compound alone): 8 µg/mL
MIC ([4]; strain ECO UFR255, compound alone): 4 µg/mL
MIC ([5]; PRE UFR99, alone): 16 µg/mL
MIC ([5]; strain PRE UFR96, compound alone): 8 µg/mL
MIC ([5]; strain PRE UFR97, compound alone): > 32 µg/mL
MIC ([5]; strain PRE UFR236, compound alone): 32 µg/mL

COCC1=C(C(=O)O)N2C(=O)[C@@H](NC(=O)/C(=N\OC)c3csc(N)n3)[C@H]2SC1 [POD, Cefpodoxime]
MIC ([1]; strain ECL P99, genotype AmpC): > 512 µg/mL
MIC ([1]; strain ECL UFR12, genotype CTX-M-9, OXA-48): 128 µg/mL
MIC ([1]; strain ECL UFR194, genotype OXA-48): 16 µg/mL
MIC ([2]; strain KOX UFR223, genotype SHV-11, OXA-48): 0.5 µg/mL
MIC ([3]; strain SMA UFR30, genotype OXA-405): 32 µg/mL
MIC ([3]; strain SMA UFR137, genotype SME-1): 1 µg/mL
MIC ([3]; strain SMA UFR138, genotype SME-1): 2 µg/mL
MIC ([3]; strain SMA UFR139, genotype SME-2): 8 µg/mL
MIC ([3]; strain SMA UFR141, genotype OXA-48): 8 µg/mL
MIC ([3]; strain SMA UFR142, genotype OXA-48): 8 µg/mL
MIC ([3]; strain SMA UFR238, genotype OXA-48): 8 µg/mL
MIC ([3]; strain SMA UFR239, genotype ESAC): 16 µg/mL
MIC ([4]; strain ECO 4133, genotype TEM-30, OXA-1): 2 µg/mL
MIC ([4]; strain ECO 5302, genotype TEM-1, OXA-1): 4 µg/mL
MIC ([4]; strain ECO 131119, genotype TEM-1, OXA-48): 1 µg/mL
MIC ([4]; strain ECO 190317, genotype TEM-1, SHV-12, CTX-M-15, OXA-1): > 512 µg/mL
MIC ([4]; strain ECO RGN238, genotype OXA-1): 2 µg/mL
MIC ([4]; strain ECO UFR15, genotype TEM-1, OXA-48): 2 µg/mL
MIC ([4]; strain ECO UFR86, genotype ompC-, ompF-): 4 µg/mL
MIC ([4]; strain ECO UFR211, genotype TEM-24): 32 µg/mL
MIC ([5]; strain PRE UFR236, genotype TEM-1, OXA-48): 64 µg/mL
